From patent publication US20230364070A1, “PYRROLO[3,2-C]PYRIDIN-4-ONE DERIVATIVES USEFUL IN THE TREATMENT OF CANCER” (Scorpion Therapeutics, Inc., priority 2020, published 2023)

What was measured:
Type in all cases: cell-based
[1] = target: T1, Ba/F3 cells with EGFR exon 20 NPG Ins D770_N771 (Homo sapiens, UniProt P00533, INS770NPG); assay: EGFR activity: Ba/F3 cell viability (CellTiter-Glo, 72 h), EGFR exon 20 NPG insertion; settings: EGFR exon 20 NPG Ins D770_N771, cell viability, read-out: BaF3 NPG IC50
T1 construct: expressed in transfected cells; host or cells: Ba/F3 (murine pro-B cells), retroviral transduction, puromycin selection, IL3-independent pool

pEGFR in CUTO14 cells = target: T2, pEGFR in CUTO14 cells (Homo sapiens, UniProt P00533, DUP767-769); assay: Inhibitor activity on EGFR phosphorylation (pEGFR AlphaLISA, 2 h), CUTO14 cells
T2 construct: endogenous in cells; host or cells: CUTO14 cells
Description: CUTO14 cells were obtained from Dr. Robert C. Doebele at the University of Colorado.
Shake 350 rpm for 1 hr in the dark • 3.4 Prepare donor mix under low light conditions prior to use. Dispense 5 μL of donor mix to all the wells. Mix well on the shaker, seal and wrap in aluminum foil and incubate 1.5 hrs at room temperature in the dark • 3.5 Transfer 18.5 μL mixture to OptiPlate 384, and read using an Envision.

[2] = target: T3, Ba/F3 cells with EGFR exon 20 ASV Ins V769_D770 (Homo sapiens, UniProt P00533, INS769ASV); assay: EGFR activity: Ba/F3 cell viability (CellTiter-Glo, 72 h), EGFR exon 20 ASV insertion; settings: EGFR exon 20 ASV Ins V769_D770, cell viability, read-out: BaF3 ASV IC50
T3 construct: expressed in transfected cells; host or cells: Ba/F3 (murine pro-B cells), retroviral transduction, puromycin selection, IL3-independent pool

Ba/F3 cells with EGFR WT = target: T4, Ba/F3 cells with EGFR WT (Homo sapiens, UniProt P00533); assay: EGFR activity: Ba/F3 cell viability (CellTiter-Glo, 72 h), EGFR WT; settings: read-out: BaF3 WT IC50
T4 construct: expressed in transfected cells; host or cells: Ba/F3 (murine pro-B cells), retroviral transduction, puromycin selection, maintained with EGF
T4 sequence (P00533 25-1210): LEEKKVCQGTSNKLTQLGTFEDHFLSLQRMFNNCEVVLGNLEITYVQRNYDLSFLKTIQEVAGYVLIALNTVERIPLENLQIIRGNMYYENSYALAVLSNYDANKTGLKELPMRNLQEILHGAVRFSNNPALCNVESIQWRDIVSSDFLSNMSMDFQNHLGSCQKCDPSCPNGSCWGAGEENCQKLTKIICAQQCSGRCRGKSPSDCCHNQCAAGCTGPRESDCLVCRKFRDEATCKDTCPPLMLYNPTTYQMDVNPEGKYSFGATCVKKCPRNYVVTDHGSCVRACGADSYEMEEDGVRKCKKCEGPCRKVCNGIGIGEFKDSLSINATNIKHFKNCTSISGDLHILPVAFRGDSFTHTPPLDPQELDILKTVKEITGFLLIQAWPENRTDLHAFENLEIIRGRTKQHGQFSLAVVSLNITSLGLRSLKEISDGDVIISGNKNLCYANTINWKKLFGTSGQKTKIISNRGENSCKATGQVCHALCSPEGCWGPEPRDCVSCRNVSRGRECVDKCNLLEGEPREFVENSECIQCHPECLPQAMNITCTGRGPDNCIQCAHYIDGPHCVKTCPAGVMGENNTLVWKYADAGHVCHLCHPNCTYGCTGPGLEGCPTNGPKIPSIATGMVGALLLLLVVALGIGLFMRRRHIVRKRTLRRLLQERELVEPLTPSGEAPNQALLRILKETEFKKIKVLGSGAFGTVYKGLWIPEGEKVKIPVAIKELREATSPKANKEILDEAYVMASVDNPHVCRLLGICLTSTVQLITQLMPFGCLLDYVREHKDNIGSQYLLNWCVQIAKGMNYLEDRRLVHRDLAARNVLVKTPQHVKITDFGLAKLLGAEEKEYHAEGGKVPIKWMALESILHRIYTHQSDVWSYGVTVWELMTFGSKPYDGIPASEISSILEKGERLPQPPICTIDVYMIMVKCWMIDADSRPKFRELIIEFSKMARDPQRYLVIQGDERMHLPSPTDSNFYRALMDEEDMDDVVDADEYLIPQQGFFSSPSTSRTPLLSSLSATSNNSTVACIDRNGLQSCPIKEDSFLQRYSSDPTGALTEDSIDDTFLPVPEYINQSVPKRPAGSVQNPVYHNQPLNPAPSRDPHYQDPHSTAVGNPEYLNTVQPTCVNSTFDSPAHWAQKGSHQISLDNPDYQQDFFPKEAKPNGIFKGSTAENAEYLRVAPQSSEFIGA

T3 sequence (P00533 with tags, fused parts or gaps INS769ASV): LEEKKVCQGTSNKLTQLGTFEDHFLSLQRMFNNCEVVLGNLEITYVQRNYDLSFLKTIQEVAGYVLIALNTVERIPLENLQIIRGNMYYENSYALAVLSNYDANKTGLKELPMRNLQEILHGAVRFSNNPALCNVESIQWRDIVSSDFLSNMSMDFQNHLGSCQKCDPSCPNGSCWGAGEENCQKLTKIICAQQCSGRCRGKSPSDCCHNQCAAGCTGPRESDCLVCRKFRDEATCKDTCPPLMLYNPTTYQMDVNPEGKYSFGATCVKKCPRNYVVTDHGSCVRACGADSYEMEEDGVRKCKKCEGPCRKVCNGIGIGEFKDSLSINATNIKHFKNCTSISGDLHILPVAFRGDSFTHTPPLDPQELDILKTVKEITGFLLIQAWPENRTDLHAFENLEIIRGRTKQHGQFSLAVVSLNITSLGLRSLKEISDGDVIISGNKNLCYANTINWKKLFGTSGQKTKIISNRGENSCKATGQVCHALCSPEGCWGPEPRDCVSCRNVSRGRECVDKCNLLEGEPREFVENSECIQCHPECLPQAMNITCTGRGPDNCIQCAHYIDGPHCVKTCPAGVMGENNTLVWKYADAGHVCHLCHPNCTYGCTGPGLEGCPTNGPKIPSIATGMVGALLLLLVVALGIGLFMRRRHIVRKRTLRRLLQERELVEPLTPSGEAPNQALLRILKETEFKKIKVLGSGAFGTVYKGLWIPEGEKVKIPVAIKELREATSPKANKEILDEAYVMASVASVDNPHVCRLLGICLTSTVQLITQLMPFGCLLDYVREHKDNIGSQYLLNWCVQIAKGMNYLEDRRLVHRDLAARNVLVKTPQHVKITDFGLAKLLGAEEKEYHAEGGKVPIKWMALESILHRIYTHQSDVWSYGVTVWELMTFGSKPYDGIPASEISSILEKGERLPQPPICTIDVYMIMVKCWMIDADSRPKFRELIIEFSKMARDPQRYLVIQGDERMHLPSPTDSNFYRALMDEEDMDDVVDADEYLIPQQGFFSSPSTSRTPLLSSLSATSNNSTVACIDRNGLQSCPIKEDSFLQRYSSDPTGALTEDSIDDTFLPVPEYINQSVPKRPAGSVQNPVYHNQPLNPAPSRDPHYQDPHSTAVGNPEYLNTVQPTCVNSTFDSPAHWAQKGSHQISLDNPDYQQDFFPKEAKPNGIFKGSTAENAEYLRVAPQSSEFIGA
T2 sequence (P00533 with tags, fused parts or gaps DUP767-769): as the sequence (P00533 with tags, fused parts or gaps INS769ASV) above
T1 sequence (P00533 with tags, fused parts or gaps INS770NPG): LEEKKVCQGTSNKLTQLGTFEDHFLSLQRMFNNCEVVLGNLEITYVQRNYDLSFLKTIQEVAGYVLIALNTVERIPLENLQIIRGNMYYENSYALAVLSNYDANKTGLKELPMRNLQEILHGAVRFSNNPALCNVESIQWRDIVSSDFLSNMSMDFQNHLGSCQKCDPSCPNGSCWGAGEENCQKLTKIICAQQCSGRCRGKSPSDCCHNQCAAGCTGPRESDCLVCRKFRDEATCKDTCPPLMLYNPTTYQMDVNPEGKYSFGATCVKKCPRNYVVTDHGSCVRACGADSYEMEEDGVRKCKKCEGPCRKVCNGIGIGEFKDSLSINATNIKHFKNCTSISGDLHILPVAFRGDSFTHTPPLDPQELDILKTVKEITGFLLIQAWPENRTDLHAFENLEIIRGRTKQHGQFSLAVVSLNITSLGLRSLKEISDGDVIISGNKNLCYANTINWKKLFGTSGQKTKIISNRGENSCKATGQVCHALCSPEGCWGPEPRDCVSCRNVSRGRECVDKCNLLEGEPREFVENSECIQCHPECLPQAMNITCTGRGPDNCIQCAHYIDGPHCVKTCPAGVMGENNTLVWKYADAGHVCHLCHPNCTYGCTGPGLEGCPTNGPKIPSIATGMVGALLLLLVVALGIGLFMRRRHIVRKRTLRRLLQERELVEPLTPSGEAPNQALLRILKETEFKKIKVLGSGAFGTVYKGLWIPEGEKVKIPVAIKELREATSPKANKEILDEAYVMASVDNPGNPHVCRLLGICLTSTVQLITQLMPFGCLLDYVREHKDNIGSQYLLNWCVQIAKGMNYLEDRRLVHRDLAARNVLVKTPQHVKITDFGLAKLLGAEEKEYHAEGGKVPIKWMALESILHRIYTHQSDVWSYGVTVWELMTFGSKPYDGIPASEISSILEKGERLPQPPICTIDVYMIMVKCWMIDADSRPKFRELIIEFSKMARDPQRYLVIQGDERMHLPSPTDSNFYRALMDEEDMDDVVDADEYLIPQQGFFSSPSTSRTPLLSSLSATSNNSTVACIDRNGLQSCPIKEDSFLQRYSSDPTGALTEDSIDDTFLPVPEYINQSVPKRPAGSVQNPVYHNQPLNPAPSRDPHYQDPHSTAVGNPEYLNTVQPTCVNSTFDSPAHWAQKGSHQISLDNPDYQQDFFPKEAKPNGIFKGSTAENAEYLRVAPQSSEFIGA

Structure (SMILES)	IC50 [1] [nM]	IC50 (pEGFR in CUTO14 cells) [nM]	IC50 [2] [nM]	IC50 (Ba/F3 cells with EGFR WT) [nM]
C=CC(=O)N1[C@H](C)CC[C@H]1C#Cc1cnccc1-c1[nH]c2c(c1Nc1cccc(F)c1OC)C(=O)NCC2 [compound 257]	< 100	< 100	< 100	< 100
C=CC(=O)NC1(C#Cc2cnccc2-c2[nH]c3c(c2Nc2cccc(Cl)c2OC)C(=O)NCC3)CCC1 [compound 261]	< 100	< 100	< 100	100 to 1000
C=CC(=O)NC1(C#Cc2cnccc2-c2[nH]c3c(c2Nc2cccc(Cl)c2OC)C(=O)NCC3)COC1 [compound 264, N-{3-[2-(4-{3-[(3-chloro-2-methoxyphenyl)amino]-4-oxo-1H,5H,6H,7H-pyrrolo[3,2-c]pyridin-2-yl}pyridin-3-yl)ethynyl]oxetan-3-yl}prop-2-enamide]	< 100	< 100	< 100	100 to 1000
C=CC(=O)N1CC(C)(C)C[C@@H]1COc1cnccc1-c1[nH]c2c(c1Nc1cccc(Cl)c1OC)C(=O)NCC2 [compound 265]	< 100	< 100	< 100	< 100
C=CC(=O)N1[C@H](COc2cnccc2-c2[nH]c3c(c2Nc2cccc(Cl)c2OC)C(=O)NCC3)C[C@H]1C [compound 270]	< 100	< 100	< 100	100 to 1000
C=CC(=O)N1[C@@H](COc2cnccc2-c2[nH]c3c(c2Nc2cccc(Cl)c2OC)C(=O)NCC3)C[C@H]1C [compound 271]	< 100	< 100	< 100	< 100
C=CC(=O)N1[C@@H](COc2cnccc2-c2[nH]c3c(c2Nc2cccc(Cl)c2OC)C(=O)NCC3)C[C@@H]1C [compound 272]	< 100	< 100	< 100	< 100
C=CC(=O)N1[C@H](COc2cnccc2-c2[nH]c3c(c2Nc2cccc(Cl)c2OC)C(=O)NCC3)C[C@@H]1C [compound 273]	< 100	< 100	< 100	< 100
CC#CC(=O)N1CCOC[C@H]1COc1cnccc1-c1[nH]c2c(c1Nc1cccc(F)c1OC)C(=O)NCC2 [compound 292]	100 to 1000	100 to 1000	100 to 1000	> 1000
C=CC(=O)N1[C@@H](C#Cc2cnccc2-c2[nH]c3c(c2Nc2cccc(F)c2OC)C(=O)NCC3)C[C@@H]2C[C@@H]21 [compound 301]	< 100	< 100	< 100	100 to 1000
C=CC(=O)N1CCC[C@]1(C)C#Cc1cnccc1-c1[nH]c2c(c1Nc1cccc(F)c1CC)C(=O)NCC2 [compound 305]	< 100	< 100	< 100	100 to 1000
CC#CC(=O)N1CC[C@]1(C)COc1cnccc1-c1[nH]c2c(c1Nc1cccc(F)c1OC)C(=O)NCC2 [compound 307]	< 100	< 100	< 100	100 to 1000
CC#CC(=O)N1CC[C@]1(C)COc1cnccc1-c1[nH]c2c(c1Nc1cccc(Cl)c1OC)C(=O)NCC2 [compound 308]	< 100	< 100	< 100	100 to 1000
C=CC(=O)NC1(C#Cc2cnccc2-c2[nH]c3c(c2Nc2cccc(F)c2OC)C(=O)NCC3)CN(C)C1 [compound 336]	100 to 1000	100 to 1000	100 to 1000	> 1000
CC#CC(=O)N1CC[C@@H]1COc1cnccc1-c1[nH]c2c(c1Nc1cc(F)cc(Cl)c1OC)C(=O)NCC2 [compound 346]	< 100	< 100	< 100	100 to 1000
CC#CC(=O)N1CC[C@@H]1COc1cnccc1-c1[nH]c2c(c1Nc1cc(F)cc(F)c1OC)C(=O)NCC2 [compound 347]	< 100	< 100	< 100	100 to 1000
CC#CC(=O)N1CC[C@@H]1COc1cnccc1-c1[nH]c2c(c1Nc1cccc(F)c1F)C(=O)NCC2 [compound 350]	< 100	< 100	< 100	100 to 1000
CC#CC(=O)N1CC[C@@]1(C)COc1cnccc1-c1[nH]c2c(c1Nc1cccc(F)c1OC)C(=O)NCC2 [compound 357]	100 to 1000	100 to 1000	100 to 1000	> 1000
CC#CC(=O)N1CC[C@@]1(C)COc1cnccc1-c1[nH]c2c(c1Nc1cccc(Cl)c1OC)C(=O)NCC2 [compound 358]	100 to 1000	100 to 1000	100 to 1000	> 1000
C=C(F)C(=O)N1CC[C@@H]1COc1cnccc1-c1[nH]c2c(c1Nc1cc(F)cc(F)c1OC)C(=O)NCC2 [compound 365]	100 to 1000	100 to 1000	100 to 1000	100 to 1000

Structure (SMILES)	IC50 [1] [nM]	IC50 (pEGFR in CUTO14 cells) [nM]	IC50 [2] [nM]	IC50 (Ba/F3 cells with EGFR WT) [nM]
CC#CC(=O)N1CC[C@@H]1C#Cc1cnccc1-c1[nH]c2c(c1Nc1cccc(F)c1OC)C(=O)NCC2 [compound 373]	< 100	< 100	< 100	< 100
CC#CC(=O)N1CC[C@H]1C#Cc1cnccc1-c1[nH]c2c(c1Nc1cccc(F)c1OC)C(=O)NCC2 [compound 374]	< 100	< 100	< 100	100 to 1000
C=CC(=O)NC1(C#Cc2cnccc2-c2[nH]c3c(c2Nc2cccc(Cl)c2OC)C(=O)NCC3)CCOCC1 [compound 382]	< 100	< 100	< 100	100 to 1000
C=CC(=O)NC1(C#Cc2cnccc2-c2[nH]c3c(c2Nc2cccc(F)c2OC)C(=O)NCC3)CCOCC1 [compound 383]	< 100	100 to 1000	100 to 1000	> 1000
C=CC(=O)NC(C)(C)C#Cc1cnccc1-c1[nH]c2c(c1Nc1cccc(F)c1C)C(=O)NCC2 [compound 385]	< 100	< 100	< 100	< 100
C=CC(=O)N[C@@]1(C#Cc2cnccc2-c2[nH]c3c(c2Nc2cccc(F)c2C)C(=O)NCC3)CCOC1 [compound 386]	< 100	< 100	< 100	100 to 1000
C=CC(=O)N[C@]1(C#Cc2cnccc2-c2[nH]c3c(c2Nc2cccc(F)c2C)C(=O)NCC3)CCOC1 [compound 387]	< 100	< 100	< 100	100 to 1000
COc1c(Cl)cccc1Nc1c(-c2ccncc2C#CC(C)(C)NC(=O)/C=C/CN(C)C)[nH]c2c1C(=O)NCC2 [compound 388]	< 100	< 100	< 100	100 to 1000
C=C(F)C(=O)NC(C)(C)C#Cc1cnccc1-c1[nH]c2c(c1Nc1cccc(F)c1OC)C(=O)NCC2 [compound 389]	< 100	< 100	< 100	100 to 1000
C=C(F)C(=O)NC(C)(C)C#Cc1cnccc1-c1[nH]c2c(c1Nc1cccc(Cl)c1OC)C(=O)NCC2 [compound 390]	< 100	< 100	< 100	100 to 1000
COc1c(F)cccc1Nc1c(-c2ccncc2C#CC(C)(C)NC(=O)/C=C/CN2CCOCC2)[nH]c2c1C(=O)NCC2 [compound 391]	100 to 1000	100 to 1000	100 to 1000	> 1000
COc1c(F)cccc1Nc1c(-c2ccncc2C#CC(C)(C)NC(=O)/C=C/CN2CCCC2)[nH]c2c1C(=O)NCC2 [compound 392]	< 100	< 100	< 100	100 to 1000
COc1c(F)cccc1Nc1c(-c2ccncc2C#CC(C)(C)NC(=O)/C=C/CN2CC(OC)C2)[nH]c2c1C(=O)NCC2 [compound 393]	< 100	< 100	< 100	100 to 1000
COc1c(F)cccc1Nc1c(-c2ccncc2C#CC(C)(C)NC(=O)/C=C/CN[C@@H]2CCOC2)[nH]c2c1C(=O)NCC2 [compound 394]	100 to 1000	100 to 1000	100 to 1000	> 1000
COc1c(F)cccc1Nc1c(-c2ccncc2C#CC(C)(C)NC(=O)/C=C/CN[C@H]2CCOC2)[nH]c2c1C(=O)NCC2 [compound 395]	100 to 1000	100 to 1000	100 to 1000	> 1000
C=CC(=O)NC1(C#Cc2cnccc2-c2[nH]c3c(c2Nc2cccc(Cl)c2OC)C(=O)NCC3)CC(F)(F)C1 [compound 400]	< 100	< 100	< 100	100 to 1000
C=CC(=O)NC1(C#Cc2cnccc2-c2[nH]c3c(c2Nc2cccc(F)c2OC)C(=O)NCC3)CC(F)(F)C1 [compound 401]	< 100	< 100	< 100	100 to 1000
CC#CC(=O)N1CC[C@@H]1COc1cnccc1-c1[nH]c2c(c1Nc1cccc(F)c1Cl)C(=O)NCC2 [compound 406]	< 100	< 100	< 100	< 100
CC#CC(=O)N1CC[C@@H]1COc1cnccc1-c1[nH]c2c(c1Nc1cccc(Cl)c1F)C(=O)NCC2 [compound 407]	< 100	< 100	< 100	< 100
